Test systems include Escherichia coli; Bacillus subtilis 168; Micrococcus luteus; Staphylococcus aureus.
Holding throughout (assay): ≥ marks a high value that may be exact or a test limit, other limits are often not marked, values filed in µg/mL are converted to µM
Assay [1] relates to Staphylococcus aureus USA 300.
Assay [2] relates to Staphylococcus aureus NCTC 10788.
For assay [3], the system named is Staphylococcus aureus NCTC 8325.
Assay [4] deals with Acinetobacter baumannii ATCC 19606.
In assay [5] the test system is Bacillus subtilis ATCC 23857.
Assay [6] deals with Enterococcus faecalis ATCC 29212.
In assay [7] the test system is Escherichia coli ATCC 25922.
Assay [8] concerns Klebsiella pneumoniae ATCC 700603.
The test system of assay [9] is Pseudomonas aeruginosa ATCC 27853.
In assay [10] the test system is Staphylococcus aureus ATCC 25923.
The subject of assay [11] is Staphylococcus epidermidis ATCC 12228.
In assay [12] the test system is Klebsiella pneumoniae ATCC 13883.
Assay [13] relates to Pseudomonas aeruginosa PAO1.
In assay [14] the test system is Candida albicans ATCC 10231.
Assay [15] relates to Pseudomonas aeruginosa ATCC 9027.

Converted amounts (≈) assume the structure as drawn.

For the compound `CC[C@H](C)[C@H](NC(=O)[C@H](C)NC(=O)[C@H](CCCCN)NC(=O)[C@H](C)N)C(=O)N[C@H](C(=O)N[C@@H](CCCN=C(N)N)C(=O)N[C@H](C(=O)N[C@H](C(=O)N[C@@H](CCC(=O)O)C(=O)N[C@@H](CCC(N)=O)C(=O)N[C@@H](C)C(=O)N1CCC[C@H]1C(=O)N[C@@H](CCCCN)C(=O)N[C@H](C(=O)N[C@@H](C)C(=O)N[C@@H](CCCCN)C(=O)N[C@@H](C)C(=O)N[C@@H](CCCCN)C(=O)N[C@@H](CCCCN)C(=O)N[C@@H](CO)C(=O)O)[C@@H](C)O)[C@@H](C)CC)[C@@H](C)O)C(C)C` [AKAIVRTIEQAPKTAKAKKS], the MIC (in general, the lowest concentration that inhibits growth of the organism) in assay [1] is not below 128 µM.
`CC[C@H](C)[C@H](NC(=O)[C@@H](NC(=O)[C@@H]1CCCN1C(=O)[C@H](CC(C)C)NC(=O)[C@@H](N)Cc1ccccc1)C(C)C)C(=O)N[C@@H](C)C(=O)NCC(=O)N[C@@H](CC(C)C)C(=O)N[C@@H](CC(C)C)C(=O)N[C@@H](CO)C(=O)N[C@@H](CCCCN)C(=O)N[C@@H](CC(C)C)C(=O)N[C@@H](Cc1ccccc1)C(N)=O` [FLPVIAGLLSKLF]: the MIC in [2] and in [3] was 8 µM (≈ 11.3 µg/mL) each time.
Consider `CC(C)C[C@H](NC(=O)[C@H](C)NC(=O)[C@@H](NC(=O)[C@H](CCCCN)NC(=O)[C@H](C)NC(=O)[C@H](CCCN=C(N)N)NC(=O)[C@H](CCCCN)NC(=O)[C@H](CC(C)C)NC(=O)[C@H](C)NC(=O)CN)[C@@H](C)O)C(N)=O` [GALKRAKTAL], for which the MIC was more than 512 µM in assay [4]; not below 512 µM in [5]; more than 512 µM in assay [6]; more than 512 µM in assay [7]; more than 512 µM in assay [8]; more than 512 µM in assay [9]. The MIC in assay [10] and in [11] was more than 512 µM throughout.
As to `CC[C@H](C)[C@H](NC(=O)[C@H](CCCN=C(N)N)NC(=O)[C@H](CCCCN)NC(=O)[C@H](Cc1ccccc1)NC(=O)[C@H](Cc1ccccc1)NC(=O)CN)C(=O)N[C@@H](CCCN=C(N)N)C(=O)N[C@H](C(=O)N[C@@H](Cc1ccccc1)C(=O)N[C@@H](Cc1ccccc1)C(N)=O)[C@@H](C)O` [GFFKRIRTFF], the MIC in [4] amounted to 64 µM (≈ 84.3 µg/mL); in assay [5] it was 16 µM (≈ 21.1 µg/mL); in assay [6], 64 µM (≈ 84.3 µg/mL); in assay [7], 32 µM (≈ 42.2 µg/mL); in [8], 32 µM (≈ 42.2 µg/mL); in assay [9], 4 µM (≈ 5.27 µg/mL). Besides, the minimal inhibitory concentration (MIC) in assay [10] was 16 µM (≈ 21.1 µg/mL); in [11], 64 µM (≈ 84.3 µg/mL).
As for `CC[C@H](C)[C@H](NC(=O)CNC(=O)[C@H](C)NC(=O)[C@@H](NC(=O)[C@@H](NC(=O)CN)[C@@H](C)CC)[C@@H](C)CC)C(=O)N[C@@H](C)C(=O)N[C@H](C(=O)N[C@@H](CCCCN)C(=O)N[C@H](C(=O)N[C@@H](CCCCN)C(=O)N[C@@H](CCCCN)C(N)=O)[C@@H](C)CC)[C@@H](C)CC` [GIIAGIAIKIKK], the MIC in assay [5] was not below 32 µM; in assay [7] it was 64 µM (≈ 78.3 µg/mL).
With `CC[C@H](C)[C@H](NC(=O)CN)C(=O)N[C@H](C(=O)N[C@@H](CCCCN)C(=O)NCC(=O)N[C@H](C(=O)N[C@H](C(=O)N[C@@H](CCCCN)C(=O)N[C@@H](CCCCN)C(=O)N[C@H](C(=O)N[C@H](C(=O)N[C@@H](CCCCN)C(N)=O)[C@@H](C)CC)[C@@H](C)CC)[C@@H](C)CC)[C@@H](C)CC)[C@@H](C)CC` [GIIKGIIKKIIK], the values for the MIC in [5] and in assay [7] were 8 µM (≈ 10.6 µg/mL) and 64 µM (≈ 84.7 µg/mL), respectively.
On to `CC(C)C[C@H](NC(=O)[C@H](CC(C)C)NC(=O)[C@H](CCCCN)NC(=O)CNC(=O)[C@H](CC(C)C)NC(=O)[C@H](CC(C)C)NC(=O)[C@H](CO)NC(=O)[C@H](CC(C)C)NC(=O)[C@H](CC(C)C)NC(=O)[C@H](CC(C)C)NC(=O)[C@H](CO)NC(=O)[C@H](CC(C)C)NC(=O)CN)C(N)=O` [GLSLLLSLLGKLL], for which the MIC was more than 25 µM in assay [7], 25 µM (≈ 33.5 µg/mL) in assay [12], more than 25 µM in [13] and 1.6 µM (≈ 2.14 µg/mL) in assay [1].
In the case of `CC(C)C[C@H](NC(=O)[C@H](CC(C)C)NC(=O)[C@H](CCCN=C(N)N)NC(=O)[C@H](CCCN=C(N)N)NC(=O)[C@H](CC(C)C)NC(=O)[C@@H](N)CC(C)C)C(=O)N[C@@H](CCCN=C(N)N)C(=O)N[C@@H](CCCN=C(N)N)C(N)=O` [LLRRLLRR], the MIC in assay [5] was not below 57.1 µM; in assay [14], 114 µM (≈ 125 µg/mL).
With `CC[C@H](C)[C@H](NC(=O)[C@H](CCCCN)NC(=O)[C@H](CCCCN)NC(=O)[C@H](C)NC(=O)[C@@H](NC(=O)[C@H](C)NC(=O)[C@H](C)NC(=O)[C@H](CC(C)C)NC(=O)[C@H](C)NC(=O)[C@H](CCCCN)NC(=O)[C@H](CC(C)C)NC(=O)[C@H](CC(N)=O)NC(=O)[C@@H](N)CC(C)C)C(C)C)C(=O)N[C@@H](CC(C)C)C(N)=O` [LNLKALAAVAKKIL], the MIC was determined as 8 µM (≈ 11.7 µg/mL) in assay [5], 8 µM (≈ 11.7 µg/mL) with Escherichia coli, 16 µM (≈ 23.4 µg/mL) in assay [8] and 16 µM (≈ 23.4 µg/mL) in [10].
As for `CC[C@H](C)[C@H](NC(=O)[C@H](CCCCN)NC(=O)[C@H](CCCCN)NC(=O)[C@H](C)NC(=O)[C@@H](NC(=O)[C@H](CCCCN)NC(=O)[C@H](CC(C)C)NC(=O)[C@H](CC(C)C)NC(=O)[C@H](CCCCN)NC(=O)[C@H](CCCCN)NC(=O)[C@H](CC(C)C)NC(=O)[C@H](CC(N)=O)NC(=O)[C@@H](N)CC(C)C)C(C)C)C(=O)N[C@@H](CC(C)C)C(N)=O` [LNLKKLLKVAKKIL], the MIC turned out to be 4 µM (≈ 6.48 µg/mL) in [5]; 8 µM (≈ 13 µg/mL) in assay [7]; 8 µM (≈ 13 µg/mL) in assay [8]; 4 µM (≈ 6.48 µg/mL) in [15]; 16 µM (≈ 25.9 µg/mL) in assay [10].
As to `CC[C@H](C)[C@H](NC(=O)[C@H](CCCN=C(N)N)NC(=O)[C@H](CCCN=C(N)N)NC(=O)[C@H](C)NC(=O)[C@@H](NC(=O)[C@H](C)NC(=O)[C@H](CC(C)C)NC(=O)[C@H](CC(C)C)NC(=O)[C@H](C)NC(=O)[C@H](CCCN=C(N)N)NC(=O)[C@H](CC(C)C)NC(=O)[C@H](CC(N)=O)NC(=O)[C@@H](N)CC(C)C)C(C)C)C(=O)N[C@@H](CC(C)C)C(N)=O` [LNLRALLAVARRIL], the MIC in assay [5] was 4 µM (≈ 6.36 µg/mL); in assay [7] it was 4 µM (≈ 6.36 µg/mL); in assay [8] it was 16 µM (≈ 25.5 µg/mL); in assay [15], 8 µM (≈ 12.7 µg/mL); in assay [10] it was 4 µM (≈ 6.36 µg/mL).
With `CC(C)C[C@H](NC(=O)[C@H](CC(=O)O)NC(=O)[C@H](CC(N)=O)NC(=O)[C@H](C)NC(=O)[C@H](CC(N)=O)NC(=O)[C@H](CC(=O)O)NC(=O)[C@@H](N)C(C)C)C(=O)N[C@@H](CC(C)C)C(=O)N[C@@H](CO)C(=O)N[C@@H](CCCCN)C(=O)N[C@H](C(=O)N[C@@H](CCCCN)C(=O)N[C@@H](CCCCN)C(=O)N[C@@H](CC(=O)O)C(=O)N[C@@H](CCCCN)C(=O)N[C@@H](CO)C(=O)N[C@@H](CC(=O)O)C(=O)O)C(C)C` [VDNANDLLSKVKKDKSD], the MIC in the assay with Bacillus subtilis 168 worked out at 1.11 µM (≈ 2.1 µg/mL); in assay [7] it was 4.39 µM (≈ 8.3 µg/mL); with Micrococcus luteus it was 4.39 µM (≈ 8.3 µg/mL); in the assay on Staphylococcus aureus, 8.26 µM (≈ 15.6 µg/mL).
As to `CC[C@H](C)[C@H](NC(=O)CNC(=O)[C@H](CC(C)C)NC(=O)[C@H](CO)NC(=O)[C@H](CCC(=O)O)NC(=O)[C@H](CCSC)NC(=O)[C@H](CCCCN)NC(=O)[C@H](C)NC(=O)[C@H](CCCCN)NC(=O)[C@H](CC(=O)O)NC(=O)[C@@H](NC(=O)[C@@H](N)C(C)C)[C@@H](C)CC)C(=O)N[C@H](C(=O)N[C@@H](CO)C(=O)N[C@@H](CCCN=C(N)N)C(=O)N[C@@H](CC(=O)O)C(=O)N[C@H](C(=O)N[C@H](C(=O)O)[C@@H](C)O)[C@@H](C)O)[C@@H](C)O` [VIDKAKMESLGITSRDTT], the MIC in the assay on Bacillus subtilis 168 stood at 7.94 µM (≈ 15.6 µg/mL); in assay [7], 15.9 µM (≈ 31.2 µg/mL); in the assay on Micrococcus luteus it was 7.94 µM (≈ 15.6 µg/mL); in the assay on Staphylococcus aureus, 15.9 µM (≈ 31.2 µg/mL).

The record behind these values is DBAASP.
